According to US20250051732A1, “KIDNEY-ON-A-CHIP COMPRISING RENAL TUBULE CULTURE PART AND INTERSTITIUM CULTURE PART” (Seoul National University Hospital, priority 2021, published 2025):

How the values were obtained:
Format in all cases: cell-based, human
[1] = tested on: vascular endothelial cells (GFP-HUVEC) in interstitium culture part; test: Renal fibrosis-on-a-chip: degree of angiogenesis (length and diameter of blood vessels, ImageJ); conditions: 24 hours
Protocol: Through comparative analysis of an organ-on-a-chip mimicking normal kidney tissue and an organ-on-a-chip mimicking renal fibrosis, evaluation indices for screening for renal fibrosis therapeutic agents were deduced in the following manner. At this time, human-derived renal fibroblasts, vascular endothelial cells (GFP-HUVEC), and renal tubular epithelial cells were seeded in the kidney-on-a-chip (FIG. 12A) manufactured in Example 3 in the same manner as in A. of Example 3, and cultured to manufacture a kidney-on-a-chip. However, two types of renal fibroblasts of renal fibroblasts derived from normal kidney tissue (hereinafter referred to as normal kidney-on-a-chip) and renal fibroblasts derived from renal fibrosis kidney tissue (hereinafter referred to as renal fibrosis-on-a-chip) were used as the renal fibroblasts to manufacture two types of kidney-on-chips.
The two types of kidney-on-chips were divided into the control group (control in FIGS. 13A to 13D) in which each of the two types of kidney-on-chips was not treated with TGF-β and the TGF-β group (TGF β in FIGS. 13A to 13D) in which each of the two types of kidney-on-chips was treated with TGF-β unlike Example 3, and immunofluorescence staining was performed in the same manner as in B. of Example 3. At this time, the renal tubular epithelial cells in the renal tubule culture part of each kidney-on-a-chip were treated with CCK8 antibody and α-SMA antibody, respectively, their fluorescence expression was photographed using a confocal microscope (MICROSCOPE CONFOCAL LASER SCANNING ZEISS LSM 710), the mean fluorescence intensity of each image was measured using the analysis program of the confocal microscope, then the result values of CCK8 and α-SMA measured for each group were compared to the values for the control group (control) to comparatively analyze the difference in expression levels, and the results are as illustrated in FIGS. 13A to 13D.
It is more reasonable to compare the kidney-on-a-chip of Example 3 to the pathological tissue of a patient from which kidney cells were obtained rather than comparing the kidney-on-a-chip to a laboratory animal model of renal fibrosis, so the evaluation indices for screening for renal fibrosis therapeutic agents were deduced by manufacturing a kidney-on-a-chip and performing comparative analysis in the same manner as in Experimental Example 1. […] In this experiment, three types of kidney-on-chips were manufactured: the control group (control in FIGS. 15 to 20) not treated with TGF-β, the TGF-β group (TGF β in FIGS. 15 to 20) treated with TGF-β in Experimental Example 1, and a TGF-β inhibition group (TGF β inhibitor in FIGS. 15 to 20) that was treated with TGF-β at 5 ng/ml and a TGF-β inhibitor at 10 μM and reacted for 24 hours.
For the three types of kidney-on-chips of the control group, the TGF-β group, and the TGF-β inhibition group, vascular endothelial cells (GFP-HUVEC) present in the vascular endothelial cell region of the interstitium culture part were photographed using a confocal microscope (MICROSCOPE CONFOCAL LASER SCANNING ZEISS LSM 710). […] The result values measured for each of the control group, TGF-β group, and TGF-β inhibition group were compared to the values for the control group according to each index to comparatively analyze the length and diameter of thin blood vessels and the length and diameter of thick blood vessels, and the results are as illustrated in FIGS. 17 to 18.

[2] = tested on: kidney injury molecule-1 (KIM-1); test: Renal fibrosis-on-a-chip: KIM-1 ELISA of culture solution; conditions: three renal fibrosis-on-chips (patients GFP >90, 60 to 90, <60), TGF-β 5 ng/ml alone or with TGF-β inhibitor 10 μM, 24 hours, FIG. 19
Protocol: An experiment was performed in the same manner as in Experimental Example 2, but enzyme-linked immunosorbent assay (ELISA assay) was performed to examine whether kidney injury molecule-1 (KIM-1) could be used as an evaluation index.
Specifically, renal fibroblasts obtained from each of three patients having GFP >90, GFP 60 to 90, and GFP <60 and purchased vascular endothelial cells (GFP-HUVEC) and renal tubular epithelial cells (HK-2 cells) were co-cultured in the vascular endothelial cell medium in the same manner as in Experimental Example 1 to manufacture three types of kidney-on-chips. Next, the medium was collected for each of the control group, TGF-β group, and TGF-β inhibition group of each of the three types of kidney-on-chips, the medium of each group was diluted at an appropriate ratio, and then ELISA analysis was performed according to the instructions of the KIM-1 (human) ELISA kit (Enzo Life Sciences, Inc, #ADI-900-226-0001). Afterwards, the result values for each group were measured at 450 nm using ELISA READER (SPECTRAMAX PLUS384), each measured result value was compared to the value for the control group of each of the three types of kidney-on-chips to comparatively analyze the difference in expression level of KIM-1, and the results are as illustrated in FIG. 19.

[3] = tested on: renal tubular epithelial cells (HK-2 cells) in renal fibrosis-on-a-chip; test: Renal fibrosis-on-a-chip: CCK8 and α-SMA immunofluorescence in renal tubule culture part; conditions: 24 hours
Protocol: (§1) Specifically, vascular endothelial cells (GFP-HUVEC) at 2000×10^4/ml and fibrin gel at 10 mg/ml were seeded in the vascular endothelial cell region (yellow region in FIG. 12B, Gel A) of the interstitium culture part of the kidney-on-a-chip manufactured above as 1 in FIG. 12C and cultured at room temperature for 2 to 3 minutes. Next, primary human renal fibroblasts derived from a patient with renal failure at 400×10^4/ml and fibrin gel at 10 mg/ml were seeded in the renal fibroblast region (red region in FIG. 12B, Gel C) of the interstitium culture part of the kidney-on-a-chip manufactured above as 2 in FIG. 12C and cultured at room temperature for 2 to 3 minutes. Afterwards, 5 to 10 μl of the human renal tubular epithelial cell (Human Kidney-2 cell, HK-2 cell) suspension at 300×10^4/ml was seeded in the renal tubule culture part (blue region in FIG. 12B, Gel B) of the kidney-on-a-chip as 3 in FIG. 12C, tilted 90° in the desired direction (upward in this experiment), and cultured at 37° C. for 30 minutes. After culture, each region of the kidney-on-a-chip was filled with 150 μl of the same medium as that in A. of Example 2-2. The renal tubular epithelial cells, vascular endothelial cells, renal fibroblasts and the like were seeded, cultured for 3 days, then treated with TGF-β at 5 ng/ml and TGF-β at 5 ng/ml and a TGF-β inhibitor at 10 μM, respectively, and reacted for 24 hours.
The following immunofluorescence staining was performed to examine whether the kidney-on-a-chip manufactured above normally mimics a living body. Cells in each of the renal tubule culture part and interstitium culture part of the kidney-on-a-chip were fixed with 4% paraformaldehyde fixative (Biosesang, #P2031) at room temperature for 20 minutes, washed with 1×PBS, then treated with 0.2% Triton-X (Sigma, #T9284), and cultured at room temperature for 20 minutes. The cells were then treated with 3% BSA, reacted at room temperature for 40 minutes, and then washed with 1×PBS. Next, the cells were treated with primary antibodies (α-SMA antibody (diluted at 1:100) for renal fibroblasts and cytokeratin 8 (CCK8) antibody (diluted at 1:200) for renal tubular epithelial cells) diluted with 1% BSA, reacted at room temperature for 2 days, and washed again with 1×PBS. After washing, the cells were treated with secondary antibodies against each marker diluted with 1% BSA at 1:100 and the antibody Hoechst diluted with 1% BSA at 1:250, reacted at room temperature for 3 hours, washed again with 1×PBS, and then photographed using a confocal microscope, and the results are illustrated in FIG. 12D. […]

[4] = tested on: normal kidney-on-a-chip (renal tubular epithelial cells (HK-2 cells), renal fibroblasts derived from normal kidney tissue, GFP-HUVEC); test: Normal kidney-on-a-chip, TGF-β stimulation: CCK8 and α-SMA immunofluorescence and blood vessels; conditions: TGF-β 5 ng/ml, 24 hours
Protocol: as §1
The following immunofluorescence staining was performed to examine whether the kidney-on-a-chip manufactured above normally mimics a living body. Cells in each of the renal tubule culture part and interstitium culture part of the kidney-on-a-chip were fixed with 4% paraformaldehyde fixative (Biosesang, #P2031) at room temperature for 20 minutes, washed with 1×PBS, then treated with 0.2% Triton-X (Sigma, #T9284), and cultured at room temperature for 20 minutes. The cells were then treated with 3% BSA, reacted at room temperature for 40 minutes, and then washed with 1×PBS. […]

[5] = tested on: vascular endothelial growth factor (VEGF); test: Renal fibrosis-on-a-chip: VEGF real-time PCR; conditions: two renal fibrosis-on-chips (patients GFP >90, 60 to 90), TGF-β 5 ng/ml alone or with TGF-β inhibitor 10 μM, 24 hours, FIG. 20
Protocol: An experiment was performed in the same manner as in Experimental Example 3-1, but real-time PCR was performed to examine whether the vascular endothelial growth factor (VEGF) can be used as an evaluation index.
Specifically, for each of the control group, TGF-β group, and TGF-β inhibition group of each of the two types of kidney-on-chips manufactured from a patient with GFP >90 and a patient with GFP 60 to 90 in Experimental Example 3-1, RNA was isolated from all of the renal tubular epithelial cells (HK-2 cells), fibroblasts, and vascular endothelial cells (GFP-HUVEC) co-cultured in each kidney-on-a-chip, cDNA was synthesized from this according to a method known in the art and mixed with VEGF primers and SYBER green, and the expression level of VEGF was measured using real-time PCR equipment (REAL TIME PCR SYSTEM, Applied Biosystems ViiA7). After measurement, the result values for each group measured using the equipment were compared to the values for the control group of each of the […] of kidney-on-chips to comparatively analyze the difference in expression level of VEGF, and the results are as illustrated in FIG. 20.

[6] = renal fibrosis-on-a-chip (Experimental Example 1), renal tubular epithelial cell region, TGF-β 5 ng/ml, vs control, FIG. 13C, 13D
[7] = three renal fibrosis-on-chips (patients GFR >90, 60-90, <60), TGF-β 5 ng/ml alone or with TGF-β inhibitor 10 μM, FIG. 15, 16
[8] = renal tubular epithelial cell region, vs control, FIG. 13A, 13B

transforming growth factor-β [TGF-β]
decreased: total length of thick blood vessels (50 μm or more) ([1]; three renal fibrosis-on-chips, TGF-β 5 ng/ml alone or with TGF-β inhibitor 10 μM, FIG. 17A) | diameter of thick blood vessels ([1]; three renal fibrosis-on-chips, TGF-β 5 ng/ml alone or with TGF-β inhibitor 10 μM, FIG. 17B) | diameter of thin blood vessels ([1]; three renal fibrosis-on-chips, TGF-β 5 ng/ml alone or with TGF-β inhibitor 10 μM, FIG. 18B) | expression level of CCK8 [3, 6] | expression level of CCK8 [3, 7] | expression level of CCK8 [4, 8]
increased: number of thin blood vessels ([1]; renal fibrosis-on-a-chip (Experimental Example 1), vascular endothelial cell region, TGF-β 5 ng/ml) | total length of thin blood vessels (less than 50 μm) ([1]; three renal fibrosis-on-chips, TGF-β 5 ng/ml alone or with TGF-β inhibitor 10 μM, FIG. 18A) | expression level of KIM-1 in the culture solution [2] | expression level of α-SMA [3, 6] | expression level of α-SMA [3, 7] | expression level of α-SMA [4, 8] | number of thin blood vessels ([4]; vascular endothelial cell region of interstitium culture part) | expression level of VEGF [5]
